{"source": "patent US8778413B2", "about": "“Dosing regimens and methods of treatment using carbon monoxide” (Ikaria, Inc., priority 2010, dated 2014)", "key": {"[1]": {"format": "in vivo, human", "details": "for CL/F, based on net COHb: intra-operative", "experimental": "(§1) Study subjects receive either (i) 12-48 hours post-operatively following renal transplant, a single dose of placebo (i.e., O2 30% in nitrogen) or carbon monoxide (Covox 12 mg/L) at 0.7 mg/kg or 2 mg/kg via inhalation for a time period of 1 hour, or (ii) intra-operatively during renal transplant surgery (at the time of re-anastomosis), a dose of placebo (i.e., O2 30% in nitrogen), 2 mg/kg or 3 mg/kg carbon monoxide via inhalation for a time period of 1 hour.\nCOHb exposure is measured using conventional methods. For example, COHb exposure can be ascertained by measuring the amount present in venous blood using a device known as a CO-OXI meter. For both post- and intra-operative dosing regimens, dose-dependency of COHb Cmax and AUC is evaluated, the results of which are shown graphically in FIGS. 1A and 1B."}, "[2]": {"test_system": "renal function of renal transplant recipients", "assay": "Transplanted organ (renal) function: serum creatinine and calculated GFR", "format": "in vivo, human", "experimental": "as §1\nOrgan function is assessed in subjects using pharmacodynamic markers representing renal functions. In particular, serum creatinine (SCr) levels are measured (using conventional methods) and glomerular filtration rate (GFR) is calculated via MDRD (GFR (mL/min/1.73 m2)=175×(Scr)−1.154× (Age)−0.203×(0.742 if female)×(1.212 if African American); as described by Levey et al., “Chronic Kidney Disease Epidemiology Collaboration. Using standardized serum creatinine values in the modification of diet in renal disease study equation for estimating glomerular filtration rate,” Ann Intern Med, 145(4):247-254 (2006))."}, "[3]": {"test_system": "renal transplant recipients", "assay": "Safety of carbon monoxide dosing regimens (AEs, ECG, QTc)", "format": "in vivo, human", "experimental": "as §1\nAll renal transplant recipients receiving carbon monoxide up to 3 mg/kg carbon monoxide (both intra-operatively and post-operatively dosed) are evaluated for safety. […] The most sensitive organs to carbon monoxide poisoning are heart and brain. As presented herein, the relationship between carbon monoxide exposure (COHb) and cardiovascular function (i.e., QTc) at 8 hours post-treatment of subjects receiving inhaled carbon monoxide or placebo (FIG. 4) is assessed via a pharmacokinetic-pharmacodynamic (PKPD) approach. Similarly, as presented herein, the relationship between subjects receiving one of various inhaled carbon monoxide doses or placebo and key neurocognitive functions (i.e., individual digit vigilance speed (FIG. 5), numeric working memory accuracy (FIG. 6) and picture recognition (FIG. 7)) up to 24 weeks post-treatment is assessed via a pharmacokinetic-pharmacodynamic (PKPD) approach."}, "[4]": {"test_system": "renal transplant recipients", "assay": "Neurocognitive functions (digit vigilance speed, numeric working memory accuracy, picture recognition)", "format": "in vivo, human", "details": "up to 3 mg/kg inhaled 1 hour, up to 24 weeks post-treatment", "experimental": "FIG. 5, FIG. 6 and FIG. 7 illustrate the impact of carbon monoxide treatment on neurocognitive functions over 6 months in subjects receiving kidney transplants following inhalation of placebo, 0.7 mg/kg, 2 mg/kg or 3 mg/kg carbon monoxide through the evaluation of individual digit vigilance speed (FIG. 5), numeric working memory accuracy (FIG. 6) and picture recognition (FIG. 7). The CO doses were administered either 12-48 hours post-operatively following renal transplant (placebo, 0.7 mg/kg or 2 mg/kg) or intra-operatively during renal transplant surgery (placebo, 2 mg/kg or 3 mg/kg). Visit #1: Screening; Visit #4: Day 0; Visit #6: Day 1; Visit #14-16: Day 28; Visit #17-18: Follow-up Weeks 16-24. The open symbols reflect individual observations, the thin lines reflect individual trends and thick lines reflect the average trend based on linear regression. […]\nAll renal transplant recipients receiving carbon monoxide up to 3 mg/kg carbon monoxide (both intra-operatively and post-operatively dosed) are evaluated for safety. […] As presented herein, the relationship between carbon monoxide exposure (COHb) and cardiovascular function (i.e., QTc) at 8 hours post-treatment of subjects receiving inhaled carbon monoxide or placebo (FIG. 4) is assessed via a pharmacokinetic-pharmacodynamic (PKPD) approach. […]"}, "[5]": {"details": "water at 0° C.; cited from earlier work"}}, "note": "“Also recorded” adds a separate entry of the source. Like-named read-outs stand apart in the source and are kept apart here. Marks after values point to notes of the source that are not given here."}
{"molecule": "[C-]#[O+]", "note": "[carbon monoxide]", "values": [{"measurement": "CL/F, based on net COHb", "setting": "[1]; 2.0 mg/kg, mean (n=6)", "value": "0.0474 mg/kg/(% * h)"}, {"measurement": "CL/F, based on net COHb", "setting": "[1]; 3.0 mg/kg, mean (n=5)", "value": "0.0549 mg/kg/(% * h)"}, {"measurement": "dose-dependency of COHb Cmax and AUC (% COHb/Hb)", "setting": "[1]; post- and intra-operative regimens, 0.7-3 mg/kg, FIGS. 1A and 1B", "value": "increased with an increase in the dose of inhaled carbon monoxide in an approximately proportional manner"}, {"measurement": "renal function (GFR and Scr)", "setting": "[2]; given 12-48 hours after the surgery, 0.7 or 2 mg/kg", "value": "does not improve renal function"}, {"measurement": "renal function (GFR and Scr)", "setting": "[2]; given during surgery (intra-operatively), 2 or 3 mg/kg", "value": "improves renal function in a dose-dependent manner"}, {"measurement": "calculated GFR on Day 1 and Day 2 versus COHb concentration", "setting": "[2]; intra-operatively treated subjects, FIG. 2 left panel", "value": "increased COHb is related to improved renal function (GFR)"}, {"measurement": "serum creatinine level on Day 2 versus COHb concentration", "setting": "[2]; intra-operatively treated subjects, FIG. 3 left panel", "value": "increased COHb is related to improved renal function (decreased serum creatinine)"}, {"measurement": "calculated GFR on Day 1 and Day 2 versus COHb concentration", "setting": "[2]; post-operatively treated subjects, FIG. 2 right panel", "value": "increased COHb is not related to the improvement of GFR"}, {"measurement": "serum creatinine level on Day 2 versus COHb concentration", "setting": "[2]; post-operatively treated subjects, FIG. 3 right panel", "value": "increased COHb did not improve the renal function (increased serum creatinine)"}, {"measurement": "QT prolongation (QTc change from baseline versus COHb)", "setting": "[3]; 8 hours after inhalation, up to 3 mg/kg for 1 hour", "value": "does not have an effect on QT prolongation; also recorded: unlikely to cause QT prolongation"}, {"measurement": "tolerability", "setting": "[3]; all dose levels up to 3 mg/kg, intra- and post-operatively dosed", "value": "well tolerated"}, {"measurement": "ECG changes", "setting": "[3]; up to 3 mg/kg", "value": "no ECG changes observed on heart rate, PR interval, QRS duration or QTcF duration"}, {"measurement": "new morphological changes or new infarction potentials", "setting": "[3]; up to 3 mg/kg", "value": "no evidence observed on new morphological changes or new infarction potentials"}, {"measurement": "incidence of cardiovascular and neurological AEs", "setting": "[3]; up to 3 mg/kg, versus placebo", "value": "comparable between CO and placebo treated subjects"}, {"measurement": "impact on neurocognitive functions", "setting": "[4]", "value": "does not have negative impact on neurocognitive functions; also recorded: unlikely to cause QT prolongation and affect neurocognitive functions"}, {"measurement": "impact on neurocognitive functions", "setting": "[4]; listed as CO", "value": "does not show any negative impact on neurocognitive functions"}, {"measurement": "saturation point", "setting": "[5]", "value": "about 0.0044 g CO/100 g medium"}]}
